Assay results reported in ChEMBL document CHEMBL5252544, “Synthesis and evaluation of biological activities of vibsanin A analogs” (Bioorg Med Chem Lett, 2017).
The source made the active and inactive calls. No cut-off for these calls is given here.

What was measured:
[1] = biological target: T1, Protein kinase C (PKC) (Homo sapiens) (UniProt O94806+P41743+P17252+P05129+Q05655+P05771+Q05513+Q02156+P24723+Q15139+Q04759); experiment: Activation of PKC in human THP-1 cells assessed as increase in ERK phosphorylation at 0.1 to 10 uM incubated for 15 mins by immunoblotting analysis; format: cell-based; settings: dose 0.1-10 µM
THP-1 [2] = experiment: Induction of cell differentiation in human THP-1 cells; format: functional, cell-based
THP-1 [3] = experiment: Cytotoxicity against human THP-1 cells by trypan blue staining based microscopic analysis; format: functional, cell-based
[4] = biological target: T1, Protein kinase C (PKC) (Homo sapiens); experiment: Activation of PKC in human THP-1 cells assessed as increase in ERK phosphorylation incubated for 15 mins by immunoblotting analysis; format: cell-based; settings: filed as activator, dose 0.1-10 µM
THP-1 [5] = experiment: Induction of monocytic differentiation in human THP-1 cells assessed as high vacuolated cytoplasm at 10 uM measured after 72 hrs by giemsa staining based microscopic analysis; format: functional, cell-based
HL-60 = experiment: Activation of ERK in human HL-60 cells assessed as increase in cell differentiation; format: cell-based; settings: filed as activator
THP-1 [6] = experiment: Induction of monocytic differentiation in human THP-1 cells assessed as decrease in nuclear to cytoplasmic ratio at 10 uM measured after 72 hrs by giemsa staining based microscopic analysis; format: functional, cell-based
THP-1 [7] = experiment: Induction of monocytic differentiation in human THP-1 cells assessed as increase in cell size at 10 uM measured after 72 hrs by giemsa staining based microscopic analysis; format: functional
THP-1 [8] = experiment: Induction of morphological changes in human THP-1 cells assessed as loss of cell circularity at 10 uM measured after 72 hrs by microscopic analysis; format: functional, cell-based
[9] = biological target: T1, Protein kinase C (PKC) (Homo sapiens); experiment: Activation of PKC in human THP-1 cells assessed as increase in ERK phosphorylation at 10 uM pretreated with PMA for 24 hrs followed by compound addition and measured after 15 mins by immunoblotting analysis; format: cell-based
[10] = biological target: T1, Protein kinase C (PKC) (Homo sapiens); experiment: Activation of PKC in human THP-1 cells assessed as increase in ERK phosphorylation at 100 nM incubated for 15 mins by immunoblotting analysis; format: cell-based; settings: filed as activator

Q: `C=C1CC[C@H]2O[C@@]2(C)[C@H](OC(=O)C=C(C)C)/C=C/[C@@](C)(CCC=C(C)C)CC1=O` was tested. Which Activity [1] did it give?
A: inactive

Q: What about the Activity (THP-1 [2]) of the same molecule?
A: inactive

Q: And the Activity (THP-1 [3])?
A: Active

Q: Which results are given for `CC(C)=CCC[C@]1(C)/C=C/[C@@H](OC(=O)C=C(C)C)[C@]2(C)O[C@@H]2CC/C(C=O)=C\C1`?
A: Activity [4]: Dose-Dependent Effect; Activity (THP-1 [5]): Active; Activity (HL-60): Active; Activity (THP-1 [6]): Active; Activity (THP-1 [7]): Active; Activity (THP-1 [8]): Active; Activity [9]: inactive

Q: With `CC(C)=CCC[C@]1(C)/C=C/[C@@H](OC(=O)C=C(C)C)[C@]2(C)O[C@@H]2CC/C(CO)=C\C1` as the molecule, how does the Activity [4] read?
A: Dose-Dependent Effect

Q: And the Activity (THP-1 [5])?
A: Active

Q: What about the Activity (HL-60) of the same molecule?
A: Active

Q: What about the Activity (THP-1 [6]) of the same molecule?
A: Active

Q: And the Activity (THP-1 [7])?
A: Active

Q: `C=C(I)CC[C@H]1O[C@@]1(C)[C@@H](/C=C/[C@](C)(CC=O)CCC=C(C)C)OC(=O)C=C(C)C` was tested. Which Activity [1] did it give?
A: inactive

Q: How did the Activity [10] turn out when `CCCCCCCCCCCCCC(=O)O[C@@H]1[C@@H](C)[C@@]2(O)[C@@H](C=C(CO)C[C@]3(O)C(=O)C(C)=C[C@@H]23)[C@@H]2C(C)(C)[C@]12OC(C)=O` was run?
A: Active

Q: With `C=C1CC[C@H]2O[C@@]2(C)[C@H](OC(=O)C=C(C)C)/C=C/[C@@](C)(CCC=C(C)C)C[C@H]1O` as the molecule, how does the Activity [1] read?
A: inactive
